# Structures can show the parent of a compound that is named as a salt.
# System: not given
# Assay: not given
# Details: not given
row,melting point,Structure (SMILES)
1,226 to 228 °C,"CCn1c(N)c(C(N)=O)c(=O)c2cnc(Nc3ccc(C4CCN(C5CC5)CC4)cc3OC)nc21 (as salt: HCl) [compound 29, 7-Amino-2-[4-(1-cyclopropylpiperid-4-yl)-2-methoxyphenylamino]-8-ethyl-5-oxo-5,8-dihydropyrido[2,3-d]pyrimidine-6-carboxamide]"
2,199 °C,"CCn1c(N)c(C(N)=O)c(=O)c2cnc(Nc3ccc(C4CCN(CCC(F)(F)F)CC4)cc3OC)nc21 (as salt: HCl) [compound 35, 7-Amino-8-ethyl-2-{2-methoxy-4-[1-(3,3,3-trifluoropropyl)piperid-4-yl]phenylamino}-5-oxo-5,8-dihydropyrido[2,3-d]pyrimidine-6-carboxamide]"
3,228 °C (dec.),"COc1cc(C2CCNCC2)ccc1Nc1ncc2c(=O)c(C(N)=O)c(N)n(-c3ccccc3)c2n1 (as salt: HCl) [compound 113, 7-Amino-2-(2-methoxy-4-piperid-4-ylphenylamino)-5-oxo-8-phenyl-5,8-dihydropyrido[2,3-d]pyrimidine-6-carboxamide]"
4,170 °C (dec.),"COCCN1CCC(c2ccc(Nc3ncc4c(=O)c(C(N)=O)c(N)n(CC(C)(C)O)c4n3)c(OC)c2)CC1 (as salt: HCl) [compound 133, 7-Amino-8-(2-hydroxy-2-methylpropyl)-2-{2-methoxy-4-[1-(2-methoxyethyl)piperid-4-yl]phenylamino}-5-oxo-5,8-dihydropyrido[2,3-d]pyrimidine-6-carboxamide]"
5,256 °C (dec.),"COc1cc(C2CCN(C)CC2)ccc1Nc1ncc2c(=O)c(C(N)=O)c(N)n(-c3ccccc3)c2n1 (as salt: HCl) [compound 134, 7-Amino-2-[2-methoxy-4-(1-methylpiperid-4-yl)phenylamino]-5-oxo-8-phenyl-5,8-dihydropyrido[2,3-d]pyrimidine-6-carboxamide]"

# Further lines, the compound ahead of its results:
row,Structure (SMILES),melting point
1,"CCN1CCN(c2cc(F)c(Nc3ncc4c(=O)c(C(N)=O)c(N)n(CC)c4n3)c(OC)c2)CC1 (as salt: HCl) [compound 28, 7-Amino-8-ethyl-2-[4-(4-ethylpiperazin-1-yl)-2-fluoro-6-methoxyphenylamino]-5-oxo-5,8-dihydropyrido[2,3-d]pyrimidine-6-carboxamide]",> 260 °C
2,"CCn1c(N)c(C(N)=O)c(=O)c2cnc(Nc3ccc(N4CCN(C5CC5)CC4)cc3OC(F)F)nc21 (as salt: HCl) [compound 33, 7-Amino-2-[4-(4-cyclopropylpiperazin-1-yl)-2-difluoromethoxyphenylamino]-8-ethyl-5-oxo-5,8-dihydropyrido[2,3-d]pyrimidine-6-carboxamide]",204 to 206 °C
3,"CCn1c(N)c(C(N)=O)c(=O)c2cnc(Nc3ccc(CCN4CCCCC4)cc3)nc21 (as salt: HCl) [compound 65, 7-Amino-8-ethyl-5-oxo-2-[4-(2-piperid-1-ylethyl)phenylamino]-5,8-dihydropyrido[2,3-d]pyrimidine-6-carboxamide]",216 °C
4,"NCCCn1c(N)c(C(N)=O)c(=O)c2cnc(Nc3ccc(N4CCOCC4)cc3)nc21 (as salt: HCl) [compound 81, 7-Amino-8-(3-aminopropyl)-2-(4-morpholin-4-ylphenylamino)-5-oxo-5,8-dihydropyrido[2,3-d]pyrimidine-6-carboxamide]",250 °C
5,"CCN1CCN(c2ccc(Nc3ncc4c(=O)c(C(N)=O)c(N)n(CC(C)(C)O)c4n3)c(OC)c2)CC1 (as salt: HCl) [compound 129, 7-Amino-2-[4-(4-ethylpiperazin-1-yl)-2-methoxyphenylamino]-8-(2-hydroxy-2-methylpropyl)-5-oxo-5,8-dihydropyrido[2,3-d]pyrimidine-6-carboxamide]",222 °C (dec.)
6,"COc1cc(C2CCN(CCC(F)(F)F)CC2)ccc1Nc1ncc2c(=O)c(C(N)=O)c(N)n(CC(C)(C)O)c2n1 (as salt: HCl) [compound 130, 7-Amino-8-(2-hydroxy-2-methylpropyl)-2-{2-methoxy-4-[1-(3,3,3-trifluoropropyl)piperid-4-yl]phenylamino}-5-oxo-5,8-dihydropyrido[2,3-d]pyrimidine-6-carboxamide]",> 260 °C
7,"CCn1c(N)c(C(N)=O)c(=O)c2cnc(Nc3ccc([C@@H]4C[C@H]4N(C)C)cc3)nc21 (racemic) (as salt: HCl) [compound 97, (±)-7-Amino-2-trans-[4-(2-dimethylaminocyclopropyl)phenylamino]-8-ethyl-5-oxo-5,8-dihydropyrido[2,3-d]pyrimidine-6-carboxamide]",208 to 210 °C (dec.)
8,"CCn1c(N)c(C(N)=O)c(=O)c2cnc(Nc3ccc(O)cc3)nc21 [compound 1, 7-Amino-8-ethyl-2-(4-hydroxyphenylamino)-5-oxo-5,8-dihydropyrido[2,3-d]pyrimidine-6-carboxamide]",> 260 °C
9,"NC(=O)c1c(N)n(C2CCCC2)c2nc(Nc3ccc(N4CCOCC4)cc3)ncc2c1=O [compound 8, 7-Amino-8-cyclopentyl-2-(4-morpholin-4-ylphenylamino)-5-oxo-5,8-dihydropyrido[2,3-d]pyrimidine-6-carboxamide]",265 °C
10,"CCn1c(N)c(C(N)=O)c(=O)c2cnc(Nc3cccc(N4CCOCC4)c3)nc21 [compound 17, 7-Amino-8-ethyl-2-(3-morpholin-4-ylphenylamino)-5-oxo-5,8-dihydropyrido[2,3-d]pyrimidine-6-carboxamide]",195 °C
11,"CCn1c(N)c(C(N)=O)c(=O)c2cnc(Nc3ccc(CCO)cc3)nc21 [compound 55, 7-Amino-8-ethyl-2-[4-(2-hydroxyethyl)phenylamino]-5-oxo-5,8-dihydropyrido[2,3-d]pyrimidine-6-carboxamide]",289 °C

# Target: CaMKIIδ (Homo sapiens (Human), UniProt Q13557)
# Assay: radioactive test on the recombinant CaMKIIδ enzyme (ATP-γ33P incorporation into Autocamtide-2)
# Assay type: biochemical
# Details: recombinant CaMKIIδ 0.37 nM, 10 μM ATP, 100 μM Autocamtide-2, two hours at 37°C
# Experimental: The compounds according to the invention were tested in vitro for their capacity to inhibit the kinase function of calcium/calmodulin-dependent protein kinase II delta (CaMKIIδ). CaMKIIδis an intracellular serine/threonine kinase. It has an enzymatic domain that is capable of using ATP to autophosphorylate. Its kinase function allows it to use ATP to phosphorylate its substrates on the serines and/or threonines. Several enzymatic and cellular tests are used to evaluate the activity of the products with respect to the kinase function of CaMKIIδ. The kinase activity of CaMKIIδis evaluated by means of a radioactive test on the recombinant CaMKIIδenzyme. The amount of ATP-γ33P incorporated into the specific substrate Autocamtide-2 during its phosphorylation by CaMKIIδis measured. The effect of the products is quantified by the concentration of product that inhibits the total activity of CaMKIIδby 50% (50% inhibitory concentration=IC50). For the determination of the IC50 values, the product is diluted in 100% of DMSO to obtain a 10 mM stock solution. The concentration range tested during the radioactive test ranges from 3 to 10 000 nM with a final concentration in the test of 1% DMSO. This concentration range may, for the most powerful compounds, be extended to 0.1 nM. On the day of the operation, 5 μl of the compounds are deposited in each well of a 96-well plate at 10 times the concentration of that to be tested. Each concentration is tested in duplicate on the same plate. The negative controls (0% activity) and positive controls (100% activity) receive 5 μL of 10% DMSO solution. A reaction premix containing the 1×kinase buffer and an ATP-MgCl2 mixture is prepared. Extemporaneously, a mixture containing the substrate Autocamtide-2 (100 μM) with calmodulin and calcium, and the solution of enzyme CaMKIIδ, is added to the premix. 45 μL of this mixture are immediately deposited per well. The final concentrations in the 50 μL final volume are as follows: compound 1X, 0.37 nM of CaMKIIδ(Invitrogen reference PV3373), 10 μM of ATP (1 μCi per well), 100 μM of Autocamtide-2, […] of calmodulin, 15 mM MgCl2, 400 μM CaCl2, 10 mM β-glycerophosphate, and 1% of DMSO. Two negative controls are prepared on each plate, a first without enzyme CaMKIIδ, and a second without substrate Autocamtide-2; these two elements are replaced with water. The plate is then incubated for two hours at 37°C. with gentle shaking. The reaction is stopped by adding 20 μL per well of H3PO4 solution. The 50 μL of each well are transferred onto a Whatman P81 filter. After rinsing twice with H3PO4 (150 μl/well per wash), followed by two rinses with 150 μL of H2O, 50 μL of scintillant are added per well. The amount of phosphorylated substrate is detected by means of a liquid scintillation counter. The inhibitory activity toward CaMKIIδis given by the concentration that inhibits 50% of the activity of CaMKIIδ. The IC50 values are generally between 10 μM and 10^−5 μM. In the table below, the IC50 values measured for several compounds (I) of the invention are presented as examples.
row,IC50,Structure (SMILES)
1,17 nM,"CCn1c(N)c(C(N)=O)c(=O)c2cnc(Nc3ccc(C4CCN(C5CC5)CC4)cc3OC)nc21 [compound 29, 7-Amino-2-[4-(1-cyclopropylpiperid-4-yl)-2-methoxyphenylamino]-8-ethyl-5-oxo-5,8-dihydropyrido[2,3-d]pyrimidine-6-carboxamide]"
2,22 nM,"CCn1c(N)c(C(N)=O)c(=O)c2cnc(Nc3ccc(C4CCN(CCC(F)(F)F)CC4)cc3OC)nc21 [compound 35, 7-Amino-8-ethyl-2-{2-methoxy-4-[1-(3,3,3-trifluoropropyl)piperid-4-yl]phenylamino}-5-oxo-5,8-dihydropyrido[2,3-d]pyrimidine-6-carboxamide]"

# Second part, the compound before the results:
row,Structure (SMILES),IC50
1,"CCn1c(N)c(C(N)=O)c(=O)c2cnc(Nc3ccc(C(=O)N4CCN(C)CC4)cc3)nc21 [compound 4, 7-Amino-8-ethyl-2-[4-(4-methylpiperazine-1-carbonyl)phenylamino]-5-oxo-5,8-dihydropyrido[2,3-d]pyrimidine-6-carboxamide]",260 nM
2,"CC(C)Cn1c(N)c(C(N)=O)c(=O)c2cnc(Nc3ccc(CCN4CCOCC4)cc3)nc21 [compound 52, 7-Amino-8-isobutyl-2-[4-(2-morpholin-4-ylethyl)phenylamino]-5-oxo-5,8-dihydropyrido[2,3-d]pyrimidine-6-carboxamide]",139 nM
3,"CN(C)Cc1ccc(Nc2ncc3c(=O)c(C(N)=O)c(N)n(CC(F)(F)F)c3n2)cc1 [compound 60, 7-Amino-2-(4-dimethylaminomethylphenylamino)-5-oxo-8-(2,2,2-trifluoroethyl)-5,8-dihydropyrido[2,3-d]pyrimidine-6-carboxamide]",663 nM
4,"CCn1c(N)c(C(N)=O)c(=O)c2cnc(Nc3ccc(N4CCC(N5CCCC5)CC4)c(Cl)c3)nc21 [compound 61, 7-Amino-2-[3-chloro-4-(4-pyrrolidin-1-ylpiperid-1-yl)phenylamino]-8-ethyl-5-oxo-5,8-dihydropyrido[2,3-d]pyrimidine-6-carboxamide]",8 nM
5,"CCn1c(N)c(C(N)=O)c(=O)c2cnc(Nc3ccc4c(c3)CCNC4)nc21 [compound 75, 7-Amino-8-ethyl-5-oxo-2-(1,2,3,4-tetrahydroisoquinolin-6-ylamino)-5,8-dihydropyrido[2,3-d]pyrimidine-6-carboxamide]",37 nM
